Data reported in patent publication US5622947A, “Benzoheterocyclic compounds and vasopressin antagonist and oxytocin antagonist compositions containing a benzoheterocyclic compound” (Otsuka Pharmaceutical Co., Ltd., priority 1992, dated 1997).
Counter-ions that a name gives are not always drawn.

Assays:
[1] = system: increase in the diastolic pressure caused by vasopressin; experiment: Vasopressin antagonistic activity in vivo; conditions: Rattus norvegicus; oral, awake male SD-rats, vasopressin 30 mU/kg i.v.; read-out: ID50 (oral dose required to achieve 50% inhibitory effect on increase in diastolic pressure)
Method: Test-3: Vasopressin antagonistic activity in vivo
In order to test the vasopressin antagonistic activity of the compound of the present invention when admistered orally to rats under awaking, the following experiment was conducted. Cannulas were inserted into the aorta abdominalis and the carotid arteries of male SD-rats (body weight: 300-450 g) under pentobarbital-anesthetization. A few days thereafter, vasopressin (30 mU/kg) was administered intravenously to the rats under awaking with measuring the blood pressure at the cannula inserted into the arorta abdominalis by a piezo-electric transducer. The test compound was dissolved in polyethylene glycol or water, or suspended in 5% gum arabic solution, and orally administered by force to the rats.
The increase in the diastolic pressure of the rat was periodically mesured at 30 minutes' interval after the administration of vasopressin for 8 hours. The rate of inhibitory effect (%) of the test compound on the increase in the diastolic pressure caused by vasopressin (30 mU/kg) was calculated based on the increase in the diastolic pressure when vasopressin (30 mU/kg) was intravenously administered without a test compound.
The test result is expressed as ID50 value, which is the oral dose of the test compound required to achieve the inhibitory effect in the rate of 50% and is shown in Table 158 as follows: […]

[2] = Anti-antiduretic water diuretic activity in vivo; conditions: oral, male SD-rats, first 2 hours, vs control group; read-out: ED3 (oral dose required to increase the amount of urine excreted for the first 2 hours)
Method: Test-4: Anti-antiduretic water diuretic/activity in vivo
The test compound of the present invention was dissolved in polyethylene glycol 400 or water or suspended in 5% gum arabic aqueous solution, and the mixture was orally administered by force to male SD-rats (body weight: 300 to 400 g) under untreated and unrestrained. After administration the rats were kept in a metabolism cage and the amount of urine spontaneously excreted by the rats was measured at 2 hours' interval, during which the rats could freely be given feed and water.
In the cotrol group, a solvent was administered instead of a test compound solution (or suspension).
The test results are expressed as ED3, which is the oral dose of the test compound which is required to increase the amount of the urine excreted from the rat in the test compound-treated group for the first 2 hours by time based on the amount of urine excreted from the rat for the first 2 hours in the control group.

[3] = biological target: T1, Oxytocin receptor (uterin muscle membrane preparation) (Rattus norvegicus, UniProt P70536); experiment: Oxytocin receptor binding assay; conditions: [3H]-oxytocin 10^-9 M, 25°, one hour, pH 8.0, uterin muscle membrane, DES-treated
T1 construct: was homogenized, which was used as a membrane; from tissue; host or cells: uterine muscle membranes from diethylstilbestrol-treated animals
T1 sequence (P70536 1-388): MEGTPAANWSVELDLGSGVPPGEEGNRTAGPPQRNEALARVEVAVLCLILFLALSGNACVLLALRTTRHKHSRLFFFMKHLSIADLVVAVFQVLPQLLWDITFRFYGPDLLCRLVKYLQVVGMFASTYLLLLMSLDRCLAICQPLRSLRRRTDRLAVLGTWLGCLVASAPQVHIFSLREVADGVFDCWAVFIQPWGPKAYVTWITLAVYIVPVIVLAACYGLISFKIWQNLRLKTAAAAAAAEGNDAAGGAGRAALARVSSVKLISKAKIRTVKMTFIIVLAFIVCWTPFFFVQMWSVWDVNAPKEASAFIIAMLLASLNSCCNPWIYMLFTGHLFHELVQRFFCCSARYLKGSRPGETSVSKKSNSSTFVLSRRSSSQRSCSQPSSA
Summary of the method: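 Rat uterine membranes (0.2 mg; DES-primed day before) incubated 1 h at 25° with [3H]-oxytocin (10^-9 M) and compound (10^-9 to 10^-5 M) in 100 mM Tris-HCl pH 8.0, 5 mM MgCl2, 1 mM EDTA, 0.1% BSA. Filter-bound radioactivity counted; nonspecific with 5×10^-6 M oxytocin; IC50 reported.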

[4] = biological target: T2, V1 Recepter (rat liver plasma membrane preparations) (Rattus norvegicus, UniProt P30560); experiment: V1 Recepter binding assay; conditions: [3H]-Arg-vasopressin 2×10^-10 M, 37° C., 10 minutes, pH 8.0, rat liver plasma membrane
T2 construct: rat liver plasma membrane preparations; from tissue; host or cells: rat liver plasma membranes
T2 sequence (P30560 whole entry): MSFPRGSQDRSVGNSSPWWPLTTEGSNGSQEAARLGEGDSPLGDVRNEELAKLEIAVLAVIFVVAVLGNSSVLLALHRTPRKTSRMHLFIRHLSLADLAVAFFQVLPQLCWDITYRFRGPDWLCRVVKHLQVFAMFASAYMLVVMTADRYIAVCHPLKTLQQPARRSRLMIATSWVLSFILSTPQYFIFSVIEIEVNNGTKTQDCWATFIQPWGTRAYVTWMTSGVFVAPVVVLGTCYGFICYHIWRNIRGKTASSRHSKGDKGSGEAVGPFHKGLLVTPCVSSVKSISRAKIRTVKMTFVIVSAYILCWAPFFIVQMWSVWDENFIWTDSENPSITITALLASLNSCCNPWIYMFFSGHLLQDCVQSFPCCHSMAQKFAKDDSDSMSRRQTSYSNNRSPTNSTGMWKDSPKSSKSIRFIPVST
Summary of the method: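 Rat liver plasma membranes incubated with [3H]-Arg-vasopressin (2×10^-10 M) and compound (10^-8 to 10^-4 M) for 10 min at 37° C in Tris-HCl pH 8.0 with MgCl2, EDTA, BSA. Bound label separated by glass-fibre filtration, scintillation counted; nonspecific binding with 10^-6 M vasopressin; IC50 reported.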

[5] = biological target: T3, V2 Recepter (rat kidney plasma membrane preparations) (Rattus norvegicus, UniProt Q00788); experiment: V2 Recepter binding assay; conditions: [3H]-Arg-vasopressin 4×10^-10 M, 4° C., pH 8.0, rat kidney plasma membrane
T3 construct: rat kidney plasma membrane preparations; from tissue; host or cells: rat kidney plasma membranes
T3 sequence (Q00788 whole entry): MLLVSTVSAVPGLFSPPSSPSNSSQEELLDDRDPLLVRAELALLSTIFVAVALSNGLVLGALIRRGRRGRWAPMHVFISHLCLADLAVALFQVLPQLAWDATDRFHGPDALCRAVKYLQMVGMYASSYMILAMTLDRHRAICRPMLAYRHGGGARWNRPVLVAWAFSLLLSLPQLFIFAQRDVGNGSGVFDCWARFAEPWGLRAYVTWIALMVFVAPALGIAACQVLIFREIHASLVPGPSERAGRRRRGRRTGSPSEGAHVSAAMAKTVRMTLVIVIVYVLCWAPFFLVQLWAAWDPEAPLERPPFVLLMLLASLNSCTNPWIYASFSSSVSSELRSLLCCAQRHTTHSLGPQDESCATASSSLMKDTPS
Summary of the method: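 Rat kidney plasma membranes incubated with [^3H]-Arg-vasopressin (4×10^-10 M) and test compound (10^-10 to 10^-5 M) for 3 h at 4 °C in 100 mM Tris-HCl pH 8.0 with 5 mM MgCl2, 1 mM EDTA, 0.1% BSA. Bound label by filtration and scintillation counting; nonspecific binding with 10^-6 M vasopressin; IC50 reported.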

Structure (SMILES) | ED50 [1] | ED (3-fold) [2] | IC50 [3] | IC50 [4] | IC50 [5]
COc1cc(NC(=O)c2ccccc2C)ccc1C(=O)N1CCCC(CC(=O)N2CCN(C)CC2)c2cc(Cl)ccc21 (centres unmarked) [Example 63, 5-[(4-Methyl-1-piperazinyl)carbonylmethyl]-7-chloro-1-[2-methoxy-4-(2-methylbenzoylamino)benzoyl]-2,3,4,5-tetrahydro-1H-benzoazepine] | 3.4 mg/kg | 3.2 mg/kg | – | – | –
COc1cc(NC(=O)c2ccccc2Cl)ccc1C(=O)N1CCCC(CC(=O)N2CCN(CC(=O)N3CCCC3)CC2)c2cc(Cl)ccc21 (centres unmarked) [Example 157, 5-{4-[(1-Pyrrolidynyl)carbonylmethyl]-1-piperazinyl}carbonylmethyl-7-chloro-1-[2-methoxy-4-(2-chlorobenzoylamino)benzoyl]-2,3,4,5-tetrahydro-1H-benzoazepine] | – | – | 47 nM | 16 nM | 7.3 nM
COc1cc(NC(=O)c2ccccc2Cl)ccc1C(=O)N1CCCC(CC(=O)Nc2ccccc2Cl)c2cc(Cl)ccc21 (centres unmarked) [Example 158, 5-(2-Chloroanilino)carbonylmethyl-7-chloro-1-[2-methoxy-4-(2-chlorobenzoylamino)benzoyl]-2,3,4,5-tetrahydro-1H-benzoazepine] | – | – | 130 nM | 31 nM | 14 nM
COc1cc(NC(=O)c2ccccc2Cl)ccc1C(=O)N1CCCC(NC(=O)c2ccccc2Cl)c2cc(Cl)ccc21 (centres unmarked) [Example 159, 5-(2-Chlorobenzoylamino)-7-chloro-1-[2-methoxy-4-(2-chlorobenzoylamino)benzoyl]-2,3,4,5-tetrahydro-1H-benzoazepine] | – | – | 1700 nM | 280 nM | 25 nM
COc1cc(NC(=O)c2ccccc2Cl)ccc1C(=O)N1CCCC(CC(=O)NCCN(C)CCO)c2cc(Cl)ccc21 (centres unmarked) [Example 160, 5-{2-[N-(2-Hydroxyethyl)-N-methylamino]ethyl}-aminocarbonylmethyl-7-chloro-1-[2-methoxy-4-(2-chlorobenzoylamino)benzoyl]-2,3,4,5-tetrahydro-1H-benzoazepine] | – | – | 84 nM | 6 nM | 3.3 nM
COc1cc(C(=O)N2CCCC(CC(=O)NCCN3CCOCC3)c3cc(Cl)ccc32)ccc1NC(=O)c1ccccc1Br (centres unmarked) [Example 164, 5-(2-Morpholinoethyl)aminocarbonylmethyl-7-chlorolo-[3-methoxy-4-(2-bromobenzoylamino)-benzoyl]-2,3,4,5-tetrahydro-1H-benzoazepine] | – | – | 41 nM | 2.6 nM | 8.5 nM
COc1cc(C(=O)N2CCCC(OCC(=O)NCCN3CCCCC3)c3cc(Cl)ccc32)ccc1NC(=O)c1ccccc1Br (centres unmarked) [Example 167, 5-[2-(1-Piperidinyl)ethyl]aminocarbonylmethoxy-7-chloro-1-[3-methoxy-4-(2-bromobenzoylamino)benzoyl]-2,3,4,5-tetrahydro-1H-benzoazepine] | – | – | 177 nM | 5.5 nM | 8.5 nM
COc1cc(C(=O)N2CCCC(OCC(=O)NCCN3CCOCC3)c3cc(Cl)ccc32)ccc1NC(=O)c1ccccc1Br (centres unmarked) [Example 168, 5-(2-Morpholinoethyl)aminocarbonylmethoxy-7-chloro-1-[3-methoxy-4-(2-bromobenzoylamino)benzoyl]-2,3,4,5-tetrahydro-1H-benzoazepine] | – | – | 85 nM | 10 nM | 19 nM
C=CCNCCOC1CCCN(C(=O)c2ccc(NC(=O)c3ccccc3Cl)cc2OC)c2ccc(Cl)cc21 (centres unmarked) [Example 169, 5-(2-Allylaminoethoxy)-7-chloro-1-[2-methoxy-4-(2-chlorobenzoylamino)benzoyl]-2,3,4,5-tetrahydro-1H-benzoazepine.cndot.hydrochloride] | – | – | 147 nM | 7 nM | 5.6 nM
C#CCNCCOC1CCCN(C(=O)c2ccc(NC(=O)c3ccccc3Cl)cc2OC)c2ccc(Cl)cc21 (centres unmarked) [Example 170, 5-(2-Propargylaminoethoxy)-7-chloro-1-[2-methoxy-4-(2-chlorobenzoylamino)benzoyl]-2,3,4,5-tetrahydro-1H-benzoazepine.cndot.hydrochloride] | – | – | 416 nM | 24 nM | 7 nM
COc1cc(NC(=O)c2ccccc2Cl)ccc1C(=O)N1CCCC(OCCn2ccnc2)c2cc(Cl)ccc21 (centres unmarked) [Example 171, 5-[2-(1-Imidazolyl)ethoxy]-7-chloro-1-[2-methoxy-4-(2-chlorobenzoylamino)benzoyl]-2,3,4,5-tetrahydro-1H-benzoazepine] | – | – | 317 nM | 110 nM | 15 nM
COc1cc(NC(=O)c2ccccc2Cl)ccc1C(=O)N1CCCC(OCCNS(C)(=O)=O)c2cc(Cl)ccc21 (centres unmarked) [Example 172, 5-(2-Methanesulfonylaminoethoxy)-7-chloro-1-[2-methoxy-4-(2-chlorobenzoylamino)benzoyl]-2,3,4,5-tetrahydro-1H-benzoazepine] | – | – | 133 nM | 5 nM | 3.9 nM
